Measurements reported in patent US8664244B2, “Compounds as c-Met kinase inhibitors” (Advenchen Pharmaceuticals, LLC, priority 2010, dated 2014).
Where two headings read alike, the source gives them in different places.

Experiments:
Type in all cases: cell-based
A549 = test: Tumor cell line inhibition, A549
SHG44 = test: Tumor cell line inhibition, SHG44
PC-3M = test: Tumor cell line inhibition, PC-3M; details: PC-3M tumor cell line

Structure (SMILES) | IC50 (A549; Homo sapiens) [µM] | IC50 (SHG44; SHG-44) [µM] | IC50 (PC-3M; Homo sapiens) [µM] | IC50 (A549) [µM] | IC50 (SHG44) [µM] | IC50 (PC-3M) [µM]
COc1ccc(COC(=O)NC2(COc3cc4nccc(Oc5ccc(NC(=O)C6(C(=O)Nc7ccc(F)cc7)CC6)cc5F)c4cc3OC)CC2)cc1 [Example 1, 4-methoxybenzyl-1-((4-(2-fluoro-4-(1-(4-fluorophenylcarbamoyl)cyclopropanecarboxamido)-phenoxy)-6-methoxyquinolin-7-yloxy)methyl)cyclopropylcarbamate] |  |  |  | 3.32 | 5.74 | 35.6
COc1ccc(COC(=O)NC2(COc3cc4nccc(Oc5ccc(NC(=O)C6(C(=O)Nc7ccc(F)c(F)c7)CC6)c(F)c5)c4cc3OC)CC2)cc1 [Example 7, 4-methoxybenzyl 1-((4-(4-(1-(3,4-difluorophenylcarbamoyl)cyclopropanecarboxamido)-3-fluoro-phenoxy)-6-methoxyquinolin-7-yloxy)methyl)cyclopropylcarbamate] | 36 | 39.1 | 51 |  |  | 
COc1ccc(COC(=O)NC2(COc3cc4nccc(Oc5ccc(NC(=O)C6(C(=O)Nc7ccccc7)CC6)cc5F)c4cc3OC)CC2)cc1 [Example 13, 4-methoxybenzyl 1-((4-(4-(1-(phenylcarbamoyl)cyclopropanecarboxamido)-2-fluoro-phenoxy)-6-methoxyquinolin-7-yloxy)methyl)cyclopropylcarbamate] | 45.4 | 26 | 53.2 |  |  | 

Further lines, with some results ahead:

IC50 (A549; Homo sapiens) [µM] | IC50 (SHG44; SHG-44) [µM] | IC50 (PC-3M; Homo sapiens) [µM] | Structure (SMILES) | IC50 (A549) [µM] | IC50 (SHG44) [µM] | IC50 (PC-3M) [µM]
0.0407 | 0.199 | 4.89 | COc1cc2c(Oc3ccc(N(C(=O)C4(C(N)=O)CC4)c4ccc(F)cc4)cc3F)ccnc2cc1OCC1(NC2CCOCC2)CC1 [Example 3, N-(3-fluoro-4-(6-methoxy-7-((1-(tetrahydro-2H-pyran-4-ylamino)cyclopropyl)methoxy)quinolin-4-yloxy)phenyl)-N-(4-fluorophenyl)cyclopropane-1,1-dicarboxamide] |  |  | 
2.22 | 2.18 | 6.02 | COc1cc2c(Oc3ccc(N(C(=O)C4(C(N)=O)CC4)c4ccc(F)c(F)c4)c(F)c3)ccnc2cc1OCC1(NC2CCOCC2)CC1 [Example 9, N-(3,4-difluorophenyl)-N-(2-fluoro-4-(6-methoxy-7-((1-(tetrahydro-2H-pyran-4-ylamino)-cyclopropyl)methoxy)quinolin-4-yloxy)phenyl)cyclopropane-1,1-dicarboxamide] |  |  | 
0.0659 | 0.589 | 16.1 | COc1cc2c(Oc3ccc(N(C(=O)C4(C(N)=O)CC4)c4ccc(F)c(F)c4)c(F)c3)ccnc2cc1OCC1(NCC2CC2)CC1 [Example 11, N-(4-(7-((1-(cyclopropylmethylamino)cyclopropyl)methoxy)-6-methoxyquinolin-4-yloxy)-2-fluorophenyl)-N-(3,4-difluorophenyl)cyclopropane-1,1-dicarboxamide] |  |  | 
0.549 | 1.41 | 12.5 | COc1cc2c(Oc3ccc(N(C(=O)C4(C(N)=O)CC4)c4ccccc4)c(F)c3)ccnc2cc1OCC1(N)CC1 [Example 14, N-(4-(7-((1-aminocyclopropyl)methoxy)-6-methoxyquinolin-4-yloxy)-2-fluorophenyl)-N-(phenyl)cyclopropane-1,1-dicarboxamide] |  |  | 
